Test results published in publication PMC9655818, “Cytoprotective Polyketides from Sponge-Derived Fungus Lopadostoma pouzarii” (Molecules, 2022).

Columns and labels:
[1] = tested on: rat normal cardiomyocytes H9c2; test: Cell viability (MTT) assay, cytotoxic activity toward H9c2 cells; format: cell-based; details: 48 h
Method: (§1) The human cancer PC-3 cells were purchased from ATCC (Manassas, VA, USA). The rat cardiomyocytes H9c2 cells were kindly provided by Prof. Dr. Gunhild von Amsberg from Martini-Klinik Prostate Cancer Center, University Hospital Hamburg-Eppendorf, Hamburg, Germany.
(§2) The PC-3 and H9c2 cells were seeded at concentrations of 5 × 10^3 cell/well and 3 × 10^3 cell/well, respectively, and the experiments were started after 24 h. The compounds at concentrations up to 100 µM were added into the wells for 48 h, and the viability of the cells was measured by an MTT (3-(4,5-dimethylthiazol-2-yl)-2,5-diphenyltetrazolium bromide) assay, which was performed according to the manufacturer’s instructions (Sigma-Aldrich, Munich, Germany). All compounds were diisolved with DMSO so that the final concentration of DMSO in the cell culture was not more than 1%. Moreover, DMSO was used as a control.
(§3) The results were presented as a percent of the control data, and the concentration of the cell viability inhibition on 50% (IC50) was calculated.

[2] = tested on: human prostate cancer PC-3 cells; test: Cell viability (MTT) assay, cytotoxic activity toward PC-3 cells; format: cell-based; details: 48 h; for IC50: Homo sapiens, PC-3 cells; for decrease of PC-3 cell viability: concentration of 100 µM
Method: as §1, §2, §3

[3] = tested on: rotenone-treated H9c2 cells; test: Cardioprotective activity against rotenone-induced toxicity; format: cell-based, rat
Method: The H9c2 cells were treated with rotenone (0.1% DMSO solution) at a concentration of 10 µM for 1 h. Then, compounds at a concentration of 10 µM were added for 23 h. The viability of the H9c2 cells was measured by an MTT assay.

[4] = DPPH scavenging assay; details: for DPPH Radicals, % of Control: compounds at 100 µM, 30 min, absorbance 520 nm, mean ± SEM
Method: The compounds were dissolved in DMSO, and the solutions (120 µL) were dispensed into wells of a 96-well microplate. In all, 30 µL of the DPPH (Sigma-Aldrich, Steinheim, Germany) solution in MeOH (1.5 × 10^−4 M) was added to each well. The concentrations of the compounds in mixture were 10 and 100 µM. Pure DMSO was used as a control. The ascorbic acid was used as a positive control. The mixture was shaken and left to stand for 30 min, and the absorbance of the resulting solution was measured at 520 nm with a microplate reader MultiscanFC (ThermoLabsystems Inc., Beverly, MA, USA). The radical scavenging activity of all compounds at 100 µM was presented as a percent of the DMSO data.

[5] = tested on: CoCl2-treated H9c2 cells; test: Cardioprotective activity in CoCl2-mimic hypoxia; format: cell-based, rat; details: MTT
Method: The H9c2 cells were treated with a dH2O-solution of CoCl2 at a concentration of 500 µM for 2 h. Then, compounds at a concentration of 10 µM were added for 46 h. The viability of the H9c2 cells was measured by an MTT assay.

SMILES	IC50 [1] [µM]	IC50 [2] [µM]	viability at 10 µM ([3]; Rattus norvegicus, H9c2, read-out: increase of viability of rotenone-treated H9c2 cells) [%]	DPPH Radicals, % of Control [4]	decrease of the amount of DPPH radical ([4]; concentration of 100 µM) [%]	viability at 10 µM ([5]; Rattus norvegicus, H9c2, compound at 10 µM for 46 h after CoCl2 500 µM for 2 h, read-out: increase of viability of CoCl2-treated H9c2 cells) [%]	decrease of PC-3 cell viability [2]	decrease of viability of H9c2 cells by rotenone treatment ([3]; rotenone 10 µM, MTT) [%]	decrease of viability of H9c2 cells by CoCl2 treatment ([5]; CoCl2 500 µM) [%]
COC1=C(OC)C(=O)C(C)C(C)C1=O (centres unmarked) [Compound 3, gliorosein]	> 100	58.9 ± 1.5	16.6	86.1 ± 1.8 % of Control	13.9	23.5	–	–	–
O=C1O[C@H]([C@@H](O)CO)C(O)=C1O [Ascorbic acid, ascorbic acid, reference compound]	–	–	–	10.5 ± 3.2 % of Control	–	–	–	–	–
C[C@@H]1C/C=C/C(=O)C/C=C/[C@H](O)CC(=O)O1 [Compound 4, balticolid]	> 100	38.9 ± 1.9	–	98.6 ± 3.4 % of Control	–	–	–	–	–
COC1=C(OC)C(O)C(C)(O)C(C)C1=O (centres unmarked) [Compound 2, lopouzanone B]	> 100	> 100	–	100.2 ± 1.0 % of Control	–	–	27–32%	–	–
C/C=C/C=C/C=C/[C@@H]1C[C@@H](O)[C@H](O)[C@H](O)[C@@H]1CO [Compound 8, dendrodochol B]	> 100	> 100	–	99.4 ± 3.3 % of Control	–	–	27–32%	–	–
C/C=C/C=C/C=C/[C@@H]1C[C@@H](OC(C)=O)[C@H](O)[C@H](O)[C@@H]1CO [Compound 9, 1-O-acetyl dendrodochol B]	> 100	> 100	–	102.7 ± 1.8 % of Control	–	–	27–32%	–	–
C=C(C)[C@H]1Cc2c(ccc3c2O[C@@H]2COc4cc(OC)c(OC)cc4[C@@H]2C3=O)O1 [rotenone, reference compound]	–	–	–	–	–	–	–	32.1	–
[Cl-].[Cl-].[Co+2] [CoCl2, cobalt chloride (II), reference compound]	–	–	–	–	–	–	–	–	54.1
COC1=C(OC)[C@@H](O)[C@](C)(O)[C@@H](C)C1=O [Compound 1, lopouzanone A]	> 100	> 100	–	93.8 ± 0.5 % of Control	–	–	27–32%	–	–
C[C@@H]1C/C=C/[C@@H](O)C/C=C/[C@@H](O)CC(=O)O1 [Compound 5, dendrodolide G]	> 100	> 100	–	98.9 ± 1.4 % of Control	–	–	27–32%	–	–
